Values joined by “and” are separate entries in the source; they are usually repeats but may differ in a detail not shown here. Equal entries are not always repeated. Where two headings read alike, the source gives them in different places.
Tests used:
rat α-thrombin = molecular target: T1, rat α-thrombin (Rattus norvegicus, UniProt P18292); test: Protease inhibition, Ki for rat α-thrombin (fluorogenic substrate Z-Gly-Gly-Arg-AMC); type: biochemical; settings: for slope normalized to DMSO, rat alpha thrombin inhibition / Rat alpha thrombin inhibition, slope normalized to DMSO: replicates R1-R3
T1 construct: rat α-thrombin (Molecular Innovations) were used at final concentrations of 2 nM and 3 nM; purchased Molecular Innovations
Procedure, shortened: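 Inhibition was measured as AMC fluorescence from 50 μM substrate, monitored for 30 min at 25 °C, relative to a peptide-free control. Human and rat enzymes were present at 2 nM and 3 nM final, respectively, in 50 mM Tris-HCl pH 7.4, 150 mM NaCl, 10 mM MgCl2, 1 mM CaCl2. Ki derives from fitted IC50 via Cheng–Prusoff.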

porcine pepsin = molecular target: T2, porcine pepsin (Sus scrofa, UniProt P00791); test: Peptide stability in simulated gastric fluid (SGF); type: in vitro ADME; settings: pig, simulated gi fluid; 8 h, 37 °C, pH 1.2; read-out: Proteolytic stability: SGF (8 h) % remaining
T2 construct: 0.32 g of porcine pepsin (Sigma-Aldrich, P7125) was dissolved under gentle agitation; purchased Sigma-Aldrich P7125
Procedure, shortened: (§1)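 Peptide from a 1 mM DMSO stock was added to fluid pre-warmed at 37 °C. SGF was pH 1.2 NaCl with porcine pepsin (0.32 g per 100 ml), and SIF was pH 6.8 potassium phosphate with porcine pancreatin (1 g per 100 ml). Supernatant peptide was quantified by LC–MS, with residual expressed as T1/T0.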

[1] = Peptide stability in simulated intestinal fluid (SIF); type: in vitro ADME, porcine; settings: pig, simulated gi fluid; 8 h, 37 °C, pH 6.8; read-out: Proteolytic stability: SIF (8 h) % remaining
Procedure, shortened: as §1

[2] = Passive artificial membrane permeability (PAMPA);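 on Permeability% Average: top well sample relative to theoretical equilibrium sample by TIC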

T2 sequence (P00791 60-385): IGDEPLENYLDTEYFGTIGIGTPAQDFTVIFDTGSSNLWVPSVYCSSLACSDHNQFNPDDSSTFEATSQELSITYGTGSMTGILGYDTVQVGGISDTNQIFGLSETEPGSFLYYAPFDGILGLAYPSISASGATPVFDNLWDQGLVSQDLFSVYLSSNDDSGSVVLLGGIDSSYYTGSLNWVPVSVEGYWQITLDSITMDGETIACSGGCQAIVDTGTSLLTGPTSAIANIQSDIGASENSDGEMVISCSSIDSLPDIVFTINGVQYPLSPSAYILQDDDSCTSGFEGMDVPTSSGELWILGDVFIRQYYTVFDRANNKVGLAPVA

O=C1C[C@H]2CCCN2C(=O)[C@H](Cc2ccccc2)NC(=O)[C@@H](NC(=O)c2ccc(Cl)s2)CCC=CCCCCN1 [peptide 43]
slope normalized to DMSO, rat alpha thrombin inhibition (rat α-thrombin; peptide 1.53E-03 uM): 90.8 and 92.4 and 84.4 | slope normalized to DMSO, rat alpha thrombin inhibition (rat α-thrombin; peptide 1.56E+00 uM): 8.6 and 7.9 and 7.3 | slope normalized to DMSO, rat alpha thrombin inhibition (rat α-thrombin; peptide 1.91E-04 uM): 101.3 and 100.0 and 99.0 | slope normalized to DMSO, rat alpha thrombin inhibition (rat α-thrombin; peptide 1.95E-01 uM): 18.2 and 17.7 and 18.1 | slope normalized to DMSO, rat alpha thrombin inhibition (rat α-thrombin; peptide 2.38E-05 uM): 104.9 and 102.6 and 101.9 | slope normalized to DMSO, rat alpha thrombin inhibition (rat α-thrombin; peptide 2.44E-02 uM): 50.2 and 48.9 and 44.8 | slope normalized to DMSO, rat alpha thrombin inhibition (rat α-thrombin; peptide 2.50E+01 uM): 4.6 and 8.1 and 4.9 | slope normalized to DMSO, rat alpha thrombin inhibition (rat α-thrombin; peptide 3.05E-03 uM): 90.9 and 88.2 and 90.2 | slope normalized to DMSO, rat alpha thrombin inhibition (rat α-thrombin; peptide 3.12E+00 uM): 7.5 and 10.1 and 7.1 | slope normalized to DMSO, rat alpha thrombin inhibition (rat α-thrombin; peptide 3.81E-04 uM): 96.2 and 101.3 and 91.7 | slope normalized to DMSO, rat alpha thrombin inhibition (rat α-thrombin; peptide 3.91E-01 uM): 12.4 and 9.5 and 6.1 | slope normalized to DMSO, rat alpha thrombin inhibition (rat α-thrombin; peptide 4.77E-05 uM): 105.1 and 89.9 and 85.4 | slope normalized to DMSO, rat alpha thrombin inhibition (rat α-thrombin; peptide 4.88E-02 uM): 32.8 and 33.4 and 28.7 | slope normalized to DMSO, rat alpha thrombin inhibition (rat α-thrombin; peptide 5.00E+01 uM): 3.1 and 5.6 and 0.5 | slope normalized to DMSO, rat alpha thrombin inhibition (rat α-thrombin; peptide 6.10E-03 uM): 72.5 and 78.4 and 84.7 | slope normalized to DMSO, rat alpha thrombin inhibition (rat α-thrombin; peptide 6.25E+00 uM): 7.7 and -0.5 | slope normalized to DMSO, rat alpha thrombin inhibition (rat α-thrombin; peptide 7.63E-04 uM): 95.8 and 97.3 and 89.3 | slope normalized to DMSO, rat alpha thrombin inhibition (rat α-thrombin; peptide 7.81E-01 uM): 10.1 and 10.3 and 8.9 | slope normalized to DMSO, rat alpha thrombin inhibition (rat α-thrombin; peptide 9.54E-05 uM): 96.1 and 92.0 and 94.2 | slope normalized to DMSO, rat alpha thrombin inhibition (rat α-thrombin; peptide 9.77E-02 uM): 27.3 and 26.5 and 22.9 | Rat alpha thrombin inhibition, slope normalized to DMSO (rat α-thrombin; peptide concentration 1.00E+02 uM): 5.4 and 5.2 and 4.3 | Rat alpha thrombin inhibition, slope normalized to DMSO (rat α-thrombin; peptide concentration 1.19E-05 uM): 102.6 and 102.2 and 91.2 | Rat alpha thrombin inhibition, slope normalized to DMSO (rat α-thrombin; peptide concentration 1.22E-02 uM): 54.9 and 61.5 and 61.2 | Rat alpha thrombin inhibition, slope normalized to DMSO (rat α-thrombin; peptide concentration 1.25E+01 uM): 7.2 and 11.2 and 5.0 | Rat alpha thrombin inhibition, slope normalized to DMSO (rat α-thrombin; peptide concentration 1.53E-03 uM): 90.8 and 92.4 and 84.4 | Rat alpha thrombin inhibition, slope normalized to DMSO (rat α-thrombin; peptide concentration 1.56E+00 uM): 8.6 and 7.9 and 7.3 | Rat alpha thrombin inhibition, slope normalized to DMSO (rat α-thrombin; peptide concentration 1.91E-04 uM): 101.3 and 100.0 and 99.0 | Rat alpha thrombin inhibition, slope normalized to DMSO (rat α-thrombin; peptide concentration 1.95E-01 uM): 18.2 and 17.7 and 18.1 | Rat alpha thrombin inhibition, slope normalized to DMSO (rat α-thrombin; peptide concentration 2.38E-05 uM): 104.9 and 102.6 and 101.9 | Rat alpha thrombin inhibition, slope normalized to DMSO (rat α-thrombin; peptide concentration 2.44E-02 uM): 50.2 and 48.9 and 44.8 | Rat alpha thrombin inhibition, slope normalized to DMSO (rat α-thrombin; peptide concentration 2.50E+01 uM): 4.6 and 8.1 and 4.9 | Rat alpha thrombin inhibition, slope normalized to DMSO (rat α-thrombin; peptide concentration 3.05E-03 uM): 90.9 and 88.2 and 90.2 | Rat alpha thrombin inhibition, slope normalized to DMSO (rat α-thrombin; peptide concentration 3.12E+00 uM): 7.5 and 10.1 and 7.1 | Rat alpha thrombin inhibition, slope normalized to DMSO (rat α-thrombin; peptide concentration 3.81E-04 uM): 96.2 and 101.3 and 91.7 | Rat alpha thrombin inhibition, slope normalized to DMSO (rat α-thrombin; peptide concentration 3.91E-01 uM): 12.4 and 9.5 and 6.1 | Rat alpha thrombin inhibition, slope normalized to DMSO (rat α-thrombin; peptide concentration 4.77E-05 uM): 105.1 and 89.9 and 85.4 | Rat alpha thrombin inhibition, slope normalized to DMSO (rat α-thrombin; peptide concentration 4.88E-02 uM): 32.8 and 33.4 and 28.7 | Rat alpha thrombin inhibition, slope normalized to DMSO (rat α-thrombin; peptide concentration 5.00E+01 uM): 3.1 and 5.6 and 0.5 | Rat alpha thrombin inhibition, slope normalized to DMSO (rat α-thrombin; peptide concentration 6.10E-03 uM): 72.5 and 78.4 and 84.7 | Rat alpha thrombin inhibition, slope normalized to DMSO (rat α-thrombin; peptide concentration 6.25E+00 uM): 7.7 and -0.5 | Rat alpha thrombin inhibition, slope normalized to DMSO (rat α-thrombin; peptide concentration 7.63E-04 uM): 95.8 and 97.3 and 89.3 | Rat alpha thrombin inhibition, slope normalized to DMSO (rat α-thrombin; peptide concentration 7.81E-01 uM): 10.1 and 10.3 and 8.9 | Rat alpha thrombin inhibition, slope normalized to DMSO (rat α-thrombin; peptide concentration 9.54E-05 uM): 96.1 and 92.0 and 94.2 | Rat alpha thrombin inhibition, slope normalized to DMSO (rat α-thrombin; peptide concentration 9.77E-02 uM): 27.3 and 26.5 and 22.9 | Ki (rat α-thrombin; purified peptide, mean and s.d. of three measurements, read-out: Ki rat α-thrombin): 11.1 ± 1.4 nM | IC50 (rat α-thrombin; single replicates R1-R3, read-out: Rat alpha thrombin inhibition, IC50): 17.1 nM and 20.2 nM and 23.1 nM | Ki (rat α-thrombin; single replicates R1-R3, read-out: Rat alpha thrombin inhibition, Ki): 9.46 nM and 11.2 nM and 12.8 nM | remaining at 8 h (porcine pepsin): 101 ± 12% | remaining at 8 h [1]: 91 ± 9% | PAMPA permeability: % permeability ([2]; 50 μM, 12–18 h, acceptor concentration relative to equilibrium): 66 ± 19% | Permeability% (single replicates R1–R3) ([2]; 50 μM, 12 h (Fig. 6d)): 52.91% and 57.15% and 54.20% | Permeability% Average ([2]; 50 μM, 12 h (Fig. 6d)): 54.8% | Permeability% (single replicates R1–R3) ([2]; 50 μM, 13 h (Fig. 5d)): 79.02% and 44.84% and 74.28% | Permeability% Average ([2]; 50 μM, 13 h (Fig. 5d)): 66.0% | Papp at 50 μM ([2]; PAMPA, pH 7.4): 9.77 ×10⁻⁶ cm/s

Reference: article PMC11062899, “De novo development of small cyclic peptides that are orally bioavailable” (Nature Chemical Biology, 2023)
